Measured values from patent publication US20100069854A1, “Elastomeric Devices Containing Chlorhexidine/Fatty Acid Salts Made From Fatty Acids of 12 to 18 Carbons” (priority 2008, published 2010).
Entries after “also recorded” stand apart in the source; their conditions may differ.

Key:
[1] = Rate of release of chlorhexidine/fatty acid salts from coated polyurethane tubes into DI water; format: physicochemical; conditions: for Cumulative release of the chlorhexidine/fatty acid salts from the coated polyurethane tubes: 1 cm coated tube in DI water, 37° C.
Description: A solution of each respective chlorhexidine/fatty acid salt was prepared and used to infuse a sample of elastomeric material. To perform the test, individual samples, 8 cm pieces of polyurethane tube containing a colorant, were surface dip coated in respective solutions of the chlorhexidine/fatty acid salts. The solutions were prepared as follows: 8.6 g of Tecoflex (Noveon, Cleveland, Ohio) was dissolved in 174 g of Tetrahydrofuran and methanol. 5.88 g of chlorhexidine acetate, chlorhexidine laurate, chlorhexidine myristate, chlorhexidine palmitate and chlorhexidine stearate were individually dissolved into the polymer-solvent mixture. The samples were immersed into the solvent-polymer-salt mixture and then dried at room temperature, evaporating the solvent. A polymeric coating was produced on the surface of the tubes. The amounts of chlorhexidine/fatty acid salt adhered per cm of the tube was measured (Table 2) by exhaustively extracting the salt and measuring UV absorbance at 253 nm relative to controls: For each of the samples, the rate of release of chlorhexidine/fatty acid salts into an aqueous solution was determined. To perform the rate of release test, 1 cm from each of the coated polyurethane tubes, were submerged in DeIonized (DI) water and incubated at 37° C. for a period of 28 days to determine the rate of release of the salts from the respective 1 cm samples of coated polyurethane tubing. The water was collected and replaced with fresh water after approximately 2 hours. The water was again collected and replaced with fresh water after the first day and every seven days thereafter. The amount of chlorhexidine/fatty acid salt in the collected water was measured with an Agilent 8453 UV-Vis Diode Array Detector with a manual setup using a cuvette w/path length of 1 cm. Chlorhexidine absorbance was read at 253 nm and concentration was calculated via a calibration curve developed using standards of 1, 5, 10, 20, 30, 35, and 40 μg/mL chlorhexidine acetate in DI Water. The percentage of chlorhexidine/fatty acid salt released from the sample into an aqueous media (percent release) was calculated according to the following equation: Percent release=(cumulative release at that time period/initial content)*100.

[2] = system: Candida albicans ATCC 10231; test: Zone of inhibition assay with impregnated polyurethane foam discs; format: cell-based; conditions: for Zone of inhibition compared with the other salts (in words): impregnated polyurethane foam, after several daily transfers / over the 9 day assay
Description: To evaluate antimicrobial properties of polyurethane foam samples infused with the various chlorhexidine/fatty acid salts, a zone of inhibition assay was performed. In this assay, 1.4% (w/v) of chlorhexidine acetate, chlorhexidine caprate, chlorhexidine laurate, chlorhexidine myristate, chlorhexidine palmitate and chlorhexidine stearate solutions in methanol were prepared. A supply of 8 mm discs were punched out of a sheet of polyurethane foam (Rynel medical grade polyurethane foam) with biopsy punches (Miltex Kai). Several discs were placed in each of six 50 ml centrifuge tubes. Approximately 5 ml of each of the different methanol/chlorhexidine/fatty acid salt solutions was added to each respective tube. The discs were centrifuged for 5 minutes to remove any air bubbles and soaked for 1 hr to infuse the foam discs with the respective chlorhexidine/fatty acid salt. Infused discs were transferred to clean centrifuge tubes and vacuum dried at 25° C. for 24 hrs to remove any residual solvents. Initial concentrations of salts, impregnated into the punches, were determined by dissolving the impregnated foams and by high pressure liquid chromatography (HPLC) analysis using an Agilent Eclipse XDB-CN 3u 4.6×150 mm column with initial mobile phase=65% DI water/0.2% trifluoroacetic acid (TFA): 35% Acetonitrile/0.2% TFA. Chlorhexidine absorbance was read at 253 nm and concentration was calculated via a chlorhexidine calibration curve. […] To perform the zone of inhibition assay on the impregnated polyurethane foam discs, agar plates were prepared by mixing 11 g Mueller-Hinton cation-adjusted broth and 1.5 g agarose in 500 ml DI water. The agar was autoclaved for 15 minutes at 121° C., 15 psi. 10 ml of the still hot, liquid agar was pipetted onto petri dishes. The challenge organism, Candida albicans ATCC 10231, was cultivated in Trypticase soy broth, standard microbiological growth medium (TSB). Sterile cotton swabs were dipped into the undiluted culture and the plated agar was fully inoculated with swabs. The 8 mm polyurethane foam discs were transferred daily to a freshly inoculated agar for 9 days. The zone of inhibition (ZOI) was measured using calipers. Actual ZOI was measured by subtracting the diameter of the foam (when wet) from the zone measured and dividing by 2. The results are presented in Table 6, with a graphical representation of the ZOI in FIG. 2;

[3] = system: Pseudomonas aeruginosa ATCC 27853; test: Basic broth adherence assay on coated polyurethane tubes; format: cell-based
Description: The antimicrobial effectiveness of the coated samples was subjected to different durations of DI water extraction by basic broth adherence assay. For each chlorhexidine/fatty acid salt tested, 3 samples of coated tubing were prepared and assayed. To prepare the inoculum, a culture of Pseudomonas aeruginosa ATCC 27853 was used to challenge the coated polyurethane tubes and controls. The negative control used was a length of uncoated polyurethane tube. The challenge microorganism suspension was prepared as follows: approximately three colonies were removed from a secondary working culture plated on Trypticase Soy Agar (TSA) (BD-Falcon) with 5% sheep's blood and added to 10 ml of Trypticase Soy Broth (TSB). The vial was vortexed for approximately 30 seconds and incubated for 4 hours at 37° C. at 100 rpm. Following incubation, the vial was removed and vortexed. The optical density of the organism suspension was read. The inoculum was then diluted in TSB to a concentration of 5×10^4 colony forming units per milliliter (CFU/mL). This concentration was confirmed by the Miles and Misra drop count method.
The basic broth adherence assay was performed in a 96 well micro titer plate. To each well of the micro titer plate containing either a test article or a control, 900 μl of TSB was added. To this, 100 μl of the adjusted inoculum was added (Note: Due to the 1/10 dilution per well, the starting inoculum concentration of each organism was […] for Pseudomonas aeruginosa). The micro titer plates were then sealed via parafilm® around the edges and wrapped in foil to avoid evaporation of liquid and light contact with the samples. The plates were then placed inside a shaker incubator set at 37° C. and 100 rpm for 24 hours. Incubation at 37° C. then continued until the elapse of 7 days, 14 days, and 21 days, respectively, for each of the 3 samples prepared for each chlorhexidine/fatty acid salt.
At the completion of the respective incubation periods, the samples were rinsed, sonicated, the sonicate was plated and adherence was evaluated. More particularly, following incubation, all samples and controls were dip-rinsed twice in phosphate buffered saline (PBS) to remove the surrounding media. After rinsing, test articles were sonicated in micro titer plate wells containing 1 mL of Dey-Engley (DE) neutralizing broth (Difco). The sonication liquid was then serially diluted, and plated onto the surface of DE neutralizing agar. Plates were incubated at 37° C. for 24 to 48 hours and colonies were counted. Recovery counts were recorded as CFU/mL.

[4] = Day 1, daily transfer to fresh agar
[5] = Day 2, daily transfer to fresh agar
[6] = Day 3, daily transfer to fresh agar
[7] = Day 4, daily transfer to fresh agar
[8] = Day 7, daily transfer to fresh agar
[9] = Day 8, daily transfer to fresh agar
[10] = Day 9, daily transfer to fresh agar

Row | Structure (SMILES) | ZOI produced by impregnated polyurethane foam punches against Candida albicans [2, 4] [mm] | ZOI produced by impregnated polyurethane foam punches against Candida albicans [2, 5] [mm] | ZOI produced by impregnated polyurethane foam punches against Candida albicans [2, 6] [mm] | ZOI produced by impregnated polyurethane foam punches against Candida albicans [2, 7] [mm] | ZOI produced by impregnated polyurethane foam punches against Candida albicans [2, 8] [mm] | ZOI produced by impregnated polyurethane foam punches against Candida albicans [2, 9] [mm] | ZOI produced by impregnated polyurethane foam punches against Candida albicans [2, 10] [mm] | Zone of inhibition compared with the other salts (in words) [2] | Cumulative release of the chlorhexidine/fatty acid salts from the coated polyurethane tubes ([1]; Day 1) [g] | Cumulative release of the chlorhexidine/fatty acid salts from the coated polyurethane tubes ([1]; Day 7) [g] | Cumulative release of the chlorhexidine/fatty acid salts from the coated polyurethane tubes ([1]; Day 14) [g] | Cumulative release of the chlorhexidine/fatty acid salts from the coated polyurethane tubes ([1]; Day 21) [g] | Cumulative release of the chlorhexidine/fatty acid salts from the coated polyurethane tubes ([1]; Day 28) [g] | Log10 reduction of adhered Pseudomonas aeruginosa onto the surface of coated polyurethane tubes ([3]; 7 days) | Log10 reduction of adhered Pseudomonas aeruginosa onto the surface of coated polyurethane tubes ([3]; 21 days) | also measured
1 | CCCCCCCCCC(=O)O.CCCCCCCCCC(=O)O.N=C(NCCCCCCNC(=N)NC(=N)Nc1ccc(Cl)cc1)NC(=N)Nc1ccc(Cl)cc1 [Chlorhexidine Caprate, chlorhexidine caprate] | 14 | 18 | 18 | 10 | 7 | 9 | 7 | zones of inhibition that were smaller | – | – | – | – | – | – | – | Percent release of the initial salt concentration from the coated sample ([1]; after approximately 7 days (FIG. 1)): 70%
2 | CCCCCCCCCCCCCC(=O)O.CCCCCCCCCCCCCC(=O)O.N=C(NCCCCCCNC(=N)NC(=N)Nc1ccc(Cl)cc1)NC(=N)Nc1ccc(Cl)cc1 [Chlorhexidine Myristate, chlorhexidine dimyristate] | 27 | 34 | 32 | 18 | 16 | 16 | 18 | – | 40 | 98 | 133 | 147 | 151 | 7 | 7 | Release from the coated sample over the test (in words) ([1]; FIG. 1, 28 days in DI water): continually released at an appreciable rate throughout the duration of the test; Amount released from the coated sample over the 7 day period ([1]; from 21 to 28 days): 4 µg
3 | CCCCCCCCCCCCCCCCCC(=O)O.CCCCCCCCCCCCCCCCCC(=O)O.N=C(NCCCCCCNC(=N)NC(=N)Nc1ccc(Cl)cc1)NC(=N)Nc1ccc(Cl)cc1 [Chlorhexidine Stearate, chlorhexidine distearate] | 11 | 17 | 16 | 13 | 14 | 8 | 8 | zones of inhibition that were smaller | 30 | 76 | 87 | 95 | 99 | 0 | 0 | Percent release of the initial salt concentration from the coated sample ([1]; after 28 days (FIG. 1)): approximately 40%; Log10 reduction of adhered Pseudomonas aeruginosa onto the surface of coated polyurethane tubes ([3]; 14 days): 0; Inhibition of adherence / antimicrobial effect against Pseudomonas aeruginosa (in words) ([3]; coated polyurethane tubes compared to uncoated control): did not provide an antimicrobial effect beyond the first day; also recorded: did not inhibit adherence of the challenge organism
